From US9932331B2, “Phenyl tetrahydroisoquinoline compound substituted with heteroaryl” (TAISHO PHARMACEUTICAL CO., LTD, priority 2014, dated 2018)
Where a name gives a salt, the structure may show the parent alone.

Target: T1, human NHE3 (Homo sapiens, UniProt P48764)
T1 sequence (P48764 26-834): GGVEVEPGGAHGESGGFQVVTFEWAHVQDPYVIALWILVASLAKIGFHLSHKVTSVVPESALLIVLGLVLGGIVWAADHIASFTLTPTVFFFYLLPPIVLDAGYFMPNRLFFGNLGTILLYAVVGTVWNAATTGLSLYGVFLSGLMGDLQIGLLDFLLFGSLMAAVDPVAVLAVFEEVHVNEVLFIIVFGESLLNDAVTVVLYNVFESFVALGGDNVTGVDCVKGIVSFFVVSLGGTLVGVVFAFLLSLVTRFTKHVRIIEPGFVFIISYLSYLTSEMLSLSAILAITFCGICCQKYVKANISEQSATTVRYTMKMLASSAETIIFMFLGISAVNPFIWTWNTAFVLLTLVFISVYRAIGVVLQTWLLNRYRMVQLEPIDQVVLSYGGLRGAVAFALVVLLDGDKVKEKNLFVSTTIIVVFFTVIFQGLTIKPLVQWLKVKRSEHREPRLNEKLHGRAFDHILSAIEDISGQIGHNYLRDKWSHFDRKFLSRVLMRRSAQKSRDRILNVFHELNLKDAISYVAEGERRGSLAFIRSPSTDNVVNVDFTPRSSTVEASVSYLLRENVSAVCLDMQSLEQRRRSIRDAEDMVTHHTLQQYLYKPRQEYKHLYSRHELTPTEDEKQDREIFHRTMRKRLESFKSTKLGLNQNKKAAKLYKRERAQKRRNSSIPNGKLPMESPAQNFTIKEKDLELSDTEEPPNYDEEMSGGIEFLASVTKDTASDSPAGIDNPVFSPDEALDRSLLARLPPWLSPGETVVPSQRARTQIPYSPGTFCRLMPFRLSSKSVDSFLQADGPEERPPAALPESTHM
Assay: NHE3 inhibition test (recovery of intracellular pH in cell line stably expressing human NHE3)
Assay type: cell-based
Settings: OK cells deficient in endogenous NHE stably expressing human NHE3; BCECF fluorescence, initial rate of pH recovery; read-out: human NHE3 inhibitory activity IC50
Method: (1) Preparation of Cell Line Deficient in Endogenous NHE
The cell line deficient in endogenous NHE was prepared according to the method of Jacques Pouyssegur et al. (Proc. Natl. Acad. Sci. USA. 1984, Vol. 81, 4833-4837) using opossum kidney (OK) cells (ATCC).
(2) Preparation of Expression Plasmid and Cell Line Stably Expressing Human NHE3
The expression plasmid was constructed by inserting a human NHE3 (SLC9A3, Accession No. NM_004174) cDNA sequence (GeneCopoeia, Inc.) into a pcDNA3.2/V5-DEST vector (Life Technologies Corp.).
The OK cells deficient in endogenous NHE were transfected with the constructed human NHE3 expression plasmid to prepare stably expressing cells. The transfection was carried out by electroporation using a Nucleofector 2b device (Lonza Group Ltd.). A stably expressing cell line was selected in medium supplemented with 500 μg/mL Geneticin (Life Technologies Corp.) and isolated.
NHE3 activity measurement method using cell: The activity was determined by using the NHE3-mediated recovery of intracellular pH occurring after intracellular acidification, as an index. The intracellular pH was measured by a partial modification of the pH-sensitive fluorescent indicator method reported by Tsien et al. (Proc. Natl. Acad. Sci. USA., 1984, 81, 7436-7440).
The cell line stably expressing human NHE3 was inoculated on a poly-D-lysine-coated 96-well plate (Greiner Bio-one) and cultured overnight. […] Then, Hank's balanced salt buffer solution containing 0.25 μM BCECF-AM (Dojindo Laboratories) was added to the cells, which were then incubated at 37° C. for 30 minutes. […] The cells thus incubated in the NH4Cl buffer solution were washed with NH4Cl-free buffer solution (133.8 mM choline chloride, […], 5 mM glucose, 4.7 mM KCl, 1.25 mM CaCl2, 1.25 mM MgCl2, 0.97 mM K2HPO4, 0.23 mM KH2PO4, pH 7.4) to decrease the intracellular pH. After the washing step, 70 μL of a test compound solution prepared with the NH4Cl-free buffer solution was added to the cells, and 70 iμL of sodium ion-containing buffer solution (133.8 mM NaCl, 10 mM HEPES, 5 mM glucose, 4.7 mM KCl, 1.25 mM CaCl2, 1.25 mM MgCl2, 0.97 mM Na2HPO4, 0.23 mM NaH2PO4, pH 7.4) was added thereto in a measurement system FDSS6000 (Hamamatsu Photonics K.K.) to start the recovery of pH. The recovery of intracellular pH was monitored using BCECF fluorescence (excitation wavelength: 480 nm, fluorescence wavelength: 520 to 560 nm), and the initial rate of the pH recovery was plotted. The recovery of pH without test compound was defined as the maximum recovery, and the test compound concentration necessary to inhibit 50% of the maximum recovery was calculated as an IC50 value.

Compound	IC50 [nM]
1,3-Bis[14-(4-{3-[(4S)-6,8-dichloro-2-methyl-1,2,3,4-tetrahydroisoquinolin-4-yl]phenyl}-1H-1,2,3-triazol-1-yl)-3,6,9,12-tetraoxatetradec-1-yl]urea hydrochloride [Example 7-44]	7.6
CN1Cc2c(Cl)cc(Cl)cc2[C@H](c2cccc(-c3ccncc3)c2)C1 [Example 1-1, (4S)-6,8-Dichloro-2-methyl-4-[3-(pyridin-4-yl)phenyl]-1,2,3,4-tetrahydroisoquinoline]	217
CN1Cc2c(Cl)cc(Cl)cc2[C@H](c2cccc(-c3ccn[nH]3)c2)C1 [Example 1-3, (4S)-6,8-Dichloro-2-methyl-4-[3-(1H-pyrazol-3-yl)phenyl]-1,2,3,4-tetrahydroisoquinoline]	392
CN1Cc2c(Cl)cc(Cl)cc2[C@H](c2cccc(-c3ccccn3)c2)C1 [Example 1-6, (4S)-6,8-Dichloro-2-methyl-4-[3-(pyridin-2-yl)phenyl]-1,2,3,4-tetrahydroisoquinoline trifluoroacetate]	373
CN1Cc2c(Cl)cc(Cl)cc2C(c2cccc(-c3cn(C)nn3)c2)C1 (stereo not shown) [Example 1-8, 6,8-Dichloro-2-methyl-4-[3-(1-methyl-1H-1,2,3-triazol-4-yl)phenyl]-1,2,3,4-tetrahydroisoquinoline]	126
COc1cc(-c2cccc([C@@H]3CN(C)Cc4c(Cl)cc(Cl)cc43)c2)ncn1 [Example 1-13, (4S)-6,8-Dichloro-4-[3-(6-methoxypyrimidin-4-yl)phenyl]-2-methyl-1,2,3,4-tetrahydroisoquinoline trifluoroacetate]	271
CN1Cc2c(Cl)cc(Cl)cc2[C@H](c2cccc(-c3cnccn3)c2)C1 [Example 1-14, (4S)-6,8-Dichloro-2-methyl-4-[3-(pyrazin-2-yl)phenyl]-1,2,3,4-tetrahydroisoquinoline trifluoroacetate]	173
CNc1cc(-c2cccc([C@@H]3CN(C)Cc4c(Cl)cc(Cl)cc43)c2)ncn1 [Example 1-15, 6-{3-[(4S)-6,8-Dichloro-2-methyl-1,2,3,4-tetrahydroisoquinolin-4-yl]phenyl}-N-methylpyrimidin-4-amine trifluoroacetate]	117
CN1Cc2c(Cl)cc(Cl)cc2[C@H](c2cccc(-c3ncccn3)c2)C1 [Example 1-16, (4S)-6,8-Dichloro-2-methyl-4-[3-(pyrimidin-2-yl)phenyl]-1,2,3,4-tetrahydroisoquinoline trifluoroacetate]	184
CN1Cc2c(Cl)cc(Cl)cc2[C@H](c2cccc(-c3ccc[nH]3)c2)C1 [Example 1-21, (4S)-6,8-Dichloro-2-methyl-4-[3-(1H-pyrrol-2-yl)phenyl]-1,2,3,4-tetrahydroisoquinoline]	1170
CN1Cc2c(Cl)cc(Cl)cc2[C@H](c2cccc(-c3ncco3)c2)C1 [Example 1-22, (4S)-6,8-Dichloro-2-methyl-4-[3-(1,3-oxazol-2-yl)phenyl]-1,2,3,4-tetrahydroisoquinoline hydrochloride]	306
CN1Cc2c(Cl)cc(Cl)cc2[C@H](c2cccc(-c3ccco3)c2)C1 [Example 1-23, (4S)-6,8-Dichloro-4-[3-(furan-2-yl)phenyl]-2-methyl-1,2,3,4-tetrahydroisoquinoline]	3220
CN1Cc2c(Cl)cc(Cl)cc2[C@H](c2cccc(-c3nn[nH]n3)c2)C1 [Example 2-1, (4S)-6,8-dichloro-2-methyl-4-[3-(2H-tetrazol-5-yl)phenyl]-1,2,3,4-tetrahydroisoquinoline]	89.3

More lines, now with the values ahead:

IC50 [nM]	Compound
217	CN1Cc2c(Cl)cc(Cl)cc2[C@H](c2cccc(-c3cccnc3)c2)C1 [Example 1-2, (4S)-6,8-Dichloro-2-methyl-4-[3-(pyridin-3-yl)phenyl]-1,2,3,4-tetrahydroisoquinoline trifluoroacetate]
257	CN1Cc2c(Cl)cc(Cl)cc2[C@H](c2cccc(-c3cn[nH]c3)c2)C1 [Example 1-4, (4S)-6,8-dichloro-2-methyl-4-[3-(1H-pyrazol-4-yl)phenyl]-1,2,3,4-tetrahydroisoquinoline]
58.1	Cc1cc(-c2cccc([C@@H]3CN(C)Cc4c(Cl)cc(Cl)cc43)c2)cnn1 [Example 1-5, (4S)-6,8-Dichloro-2-methyl-4-[3-(6-methylpyridazin-4-yl)phenyl]-1,2,3,4-tetrahydroisoquinoline trifluoroacetate]
626	CN1Cc2c(Cl)cc(Cl)cc2[C@H](c2cccc(-c3ccnc(C#N)c3)c2)C1 [Example 1-7, 4-{3-[(4S)-6,8-Dichloro-2-methyl-1,2,3,4-tetrahydroisoquinolin-4-yl]phenyl}pyridine-2-carbonitrile]
561	CNc1cc(-c2cccc([C@@H]3CN(C)Cc4c(Cl)cc(Cl)cc43)c2)ccn1 [Example 1-9, 4-{3-[(4S)-6,8-Dichloro-2-methyl-1,2,3,4-tetrahydroisoquinolin-4-yl]phenyl}-N-methylpyridin-2-amine trifluoroacetate]
169	CN1Cc2c(Cl)cc(Cl)cc2[C@H](c2cccc(-c3cncnc3)c2)C1 [Example 1-10, (4S)-6,8-Dichloro-2-methyl-4-[3-(pyrimidin-5-yl)phenyl]-1,2,3,4-tetrahydroisoquinoline trifluoroacetate]
1600	COc1cc(-c2cccc([C@@H]3CN(C)Cc4c(Cl)cc(Cl)cc43)c2)ccn1 [Example 1-11, (4S)-6,8-Dichloro-4-[3-(2-methoxypyridin-4-yl)phenyl]-2-methyl-1,2,3,4-tetrahydroisoquinoline trifluoroacetate]
650	CCc1cc(-c2cccc([C@@H]3CN(C)Cc4c(Cl)cc(Cl)cc43)c2)ccn1 [Example 1-12, (4S)-6,8-Dichloro-4-[3-(2-ethylpyridin-4-yl)phenyl]-2-methyl-1,2,3,4-tetrahydroisoquinoline trifluoroacetate]
109	CN1Cc2c(Cl)cc(Cl)cc2[C@H](c2cccc(-c3ccnnc3)c2)C1 [Example 1-17, (4S)-6,8-Dichloro-2-methyl-4-[3-(pyridazin-4-yl)phenyl]-1,2,3,4-tetrahydroisoquinoline trifluoroacetate]
95.7	CN1Cc2c(Cl)cc(Cl)cc2[C@H](c2cccc(-c3cn(C)cn3)c2)C1 [Example 1-18, (4S)-6,8-Dichloro-2-methyl-4-[3-(1-methyl-1H-imidazol-4-yl)phenyl]-1,2,3,4-tetrahydroisoquinoline]
856	Cc1cc(-c2cccc([C@@H]3CN(C)Cc4c(Cl)cc(Cl)cc43)c2)sn1 [Example 1-19, (4S)-6,8-Dichloro-2-methyl-4-[3-(3-methyl-1,2-thiazol-5-yl)phenyl]-1,2,3,4-tetrahydroisoquinoline hydrochloride]
208	CN1Cc2c(Cl)cc(Cl)cc2[C@H](c2cccc(-c3cccnn3)c2)C1 [Example 1-20, (4S)-6,8-Dichloro-2-methyl-4-[3-(pyridazin-3-yl)phenyl]-1,2,3,4-tetrahydroisoquinoline hydrochloride]
